Values after ≈ are worked out from the molar mass of the structure shown.
Key:
Type in all cases: functional
Escherichia coli = test: Antimicrobial activity against Escherichia coli NICM 2138 assessed as growth inhibition by two-fold serial dilution method
Rhizopus arrhizus = test: Antimicrobial activity against Rhizopus oryzae NICM 997 assessed as growth inhibition by two-fold serial dilution method
Pseudomonas aeruginosa = test: Antimicrobial activity against Pseudomonas aeruginosa NICM 2036 assessed as growth inhibition by two-fold serial dilution method
Saccharomyces cerevisiae = test: Antimicrobial activity against Saccharomyces cerevisiae NICM 3312 assessed as growth inhibition by two fold serial dilution method
Candida albicans = test: Antimicrobial activity against Candida albicans NICM 3100 assessed as growth inhibition by two-fold serial dilution method
Bacillus subtilis = test: Antimicrobial activity against Bacillus subtilis NICM 2063 assessed as growth inhibition by two fold serial dilution method
Aspergillus flavus = test: Antimicrobial activity against Aspergillus flavus NICM 524 assessed as growth inhibition by two fold serial dilution method
[1] = test system: Staphylococcus epidermidis; test: Antimicrobial activity against Staphylococcus epidermidis NICM 2493 assessed as growth inhibition by two fold serial dilution method
Aspergillus niger = test: Antimicrobial activity against Aspergillus niger NICM 572 assessed as growth inhibition by two fold serial dilution method
Staphylococcus aureus = test: Antimicrobial activity against Staphylococcus aureus NICM 2079 assessed as growth inhibition by two fold serial dilution method

SMILES	MIC (Escherichia coli) [µg/mL]	MIC (Rhizopus arrhizus) [µg/mL]	MIC (Pseudomonas aeruginosa) [µg/mL]	MIC (Saccharomyces cerevisiae) [µg/mL]	MIC (Candida albicans) [µg/mL]	MIC (Bacillus subtilis) [µg/mL]	MIC (Aspergillus flavus) [µg/mL]	MIC [1] [µg/mL]	MIC (Aspergillus niger) [µg/mL]	MIC (Staphylococcus aureus) [µg/mL]
Cc1nn(-c2ccc(-c3nnc(S)n3N)cc2)c(=O)n1N	37.5 (≈ 123 µM)	18.8 (≈ 61.6 µM)	18.8 (≈ 61.6 µM)	150 (≈ 493 µM)	150 (≈ 493 µM)	18.8 (≈ 61.6 µM)	75 (≈ 246 µM)	75 (≈ 246 µM)	37.5 (≈ 123 µM)	9.37 (≈ 30.8 µM)
Cc1nn(-c2ccc(-c3nnc(S)o3)cc2)c(=O)n1/N=C/c1ccco1	150 (≈ 407 µM)	150 (≈ 407 µM)	37.5 (≈ 102 µM)	150 (≈ 407 µM)	150 (≈ 407 µM)	150 (≈ 407 µM)	150 (≈ 407 µM)	75 (≈ 204 µM)	150 (≈ 407 µM)	37.5 (≈ 102 µM)
Cc1nn(-c2ccc(-c3nnc(S)o3)cc2)c(=O)n1/N=C/c1ccccc1F	75 (≈ 189 µM)	9.37 (≈ 23.6 µM)	75 (≈ 189 µM)	75 (≈ 189 µM)	150 (≈ 378 µM)	75 (≈ 189 µM)	37.5 (≈ 94.6 µM)	150 (≈ 378 µM)	75 (≈ 189 µM)	37.5 (≈ 94.6 µM)
CSc1nnc(-c2ccc(-n3nc(C)n(N)c3=O)cc2)o1	75 (≈ 246 µM)	37.5 (≈ 123 µM)	75 (≈ 246 µM)	150 (≈ 493 µM)	150 (≈ 493 µM)	150 (≈ 493 µM)	150 (≈ 493 µM)	75 (≈ 246 µM)	150 (≈ 493 µM)	37.5 (≈ 123 µM)
C[C@@H]1[C@H](O)[C@@H](C)/C=C/C=C/C=C/C=C/C=C/C=C/C=C/[C@H](O[C@@H]2O[C@H](C)[C@@H](O)[C@H](N)[C@@H]2O)C[C@@H]2O[C@](O)(C[C@@H](O)C[C@@H](O)[C@H](O)CC[C@@H](O)C[C@@H](O)CC(=O)O[C@H]1C)C[C@H](O)[C@H]2C(=O)O [AMPHOTERICIN B]	–	1.56 (≈ 1.69 µM)	–	6.25 (≈ 6.76 µM)	6.25 (≈ 6.76 µM)	–	6.25 (≈ 6.76 µM)	–	1.56 (≈ 1.69 µM)	–
CC1(C)S[C@@H]2[C@H](NC(=O)Cc3ccccc3)C(=O)N2[C@H]1C(=O)O [PENICILLIN G]	6.25 (≈ 18.7 µM)	–	9.37 (≈ 28 µM)	–	–	1.53 (≈ 4.56 µM)	–	3.12 (≈ 9.35 µM)	–	6.25 (≈ 18.7 µM)
CN[C@@H]1[C@H](O[C@H]2[C@H](O[C@H]3[C@H](O)[C@@H](O)[C@H](N=C(N)N)[C@@H](O)[C@@H]3N=C(N)N)O[C@@H](C)[C@]2(O)C=O)O[C@@H](CO)[C@H](O)[C@H]1O [STREPTOMYCIN]	3.12 (≈ 5.37 µM)	–	3.12 (≈ 5.37 µM)	–	–	6.25 (≈ 10.7 µM)	–	1.56 (≈ 2.69 µM)	–	1.56 (≈ 2.68 µM)

Further lines, results first:

MIC (Escherichia coli) [µg/mL]	MIC (Rhizopus arrhizus) [µg/mL]	MIC (Pseudomonas aeruginosa) [µg/mL]	MIC (Saccharomyces cerevisiae) [µg/mL]	MIC (Candida albicans) [µg/mL]	MIC (Bacillus subtilis) [µg/mL]	MIC (Aspergillus flavus) [µg/mL]	MIC [1] [µg/mL]	MIC (Aspergillus niger) [µg/mL]	MIC (Staphylococcus aureus) [µg/mL]	SMILES
37.5 (≈ 97.3 µM)	37.5 (≈ 97.3 µM)	150 (≈ 389 µM)	150 (≈ 389 µM)	150 (≈ 389 µM)	37.5 (≈ 97.3 µM)	150 (≈ 389 µM)	18.8 (≈ 48.6 µM)	150 (≈ 389 µM)	75 (≈ 195 µM)	Cc1nn(-c2ccc(-c3nnc(S)o3)cc2)c(=O)n1/N=C/c1cscn1
150 (≈ 328 µM)	37.5 (≈ 82 µM)	150 (≈ 328 µM)	150 (≈ 328 µM)	150 (≈ 328 µM)	75 (≈ 164 µM)	75 (≈ 164 µM)	75 (≈ 164 µM)	150 (≈ 328 µM)	75 (≈ 164 µM)	Cc1nn(-c2ccc(-c3nnc(S)o3)cc2)c(=O)n1/N=C/c1ccccc1Br
37.5 (≈ 94.6 µM)	75 (≈ 189 µM)	75 (≈ 189 µM)	150 (≈ 378 µM)	150 (≈ 378 µM)	75 (≈ 189 µM)	75 (≈ 189 µM)	150 (≈ 378 µM)	75 (≈ 189 µM)	150 (≈ 378 µM)	Cc1nn(-c2ccc(-c3nnc(S)o3)cc2)c(=O)n1/N=C/c1ccc(F)cc1
150 (≈ 362 µM)	18.8 (≈ 45.2 µM)	75 (≈ 181 µM)	150 (≈ 362 µM)	18.8 (≈ 45.2 µM)	37.5 (≈ 90.5 µM)	9.37 (≈ 22.6 µM)	18.8 (≈ 45.2 µM)	37.5 (≈ 90.5 µM)	75 (≈ 181 µM)	Cc1nn(-c2ccc(-c3nnc(S)o3)cc2)c(=O)n1/N=C/c1cc(F)ccc1F
9.37 (≈ 23.6 µM)	150 (≈ 378 µM)	75 (≈ 189 µM)	75 (≈ 189 µM)	150 (≈ 378 µM)	18.8 (≈ 47.3 µM)	150 (≈ 378 µM)	37.5 (≈ 94.6 µM)	150 (≈ 378 µM)	9.37 (≈ 23.6 µM)	Cc1nn(-c2ccc(-c3nnc(S)o3)cc2)c(=O)n1/N=C/c1cccc(F)c1
37.5 (≈ 99.6 µM)	150 (≈ 399 µM)	75 (≈ 199 µM)	150 (≈ 399 µM)	150 (≈ 399 µM)	37.5 (≈ 99.6 µM)	150 (≈ 399 µM)	75 (≈ 199 µM)	150 (≈ 399 µM)	18.8 (≈ 49.8 µM)	CCOC(=O)CSc1nnc(-c2ccc(-n3nc(C)n(N)c3=O)cc2)o1
75 (≈ 258 µM)	75 (≈ 258 µM)	37.5 (≈ 129 µM)	150 (≈ 517 µM)	37.5 (≈ 129 µM)	37.5 (≈ 129 µM)	150 (≈ 517 µM)	150 (≈ 517 µM)	150 (≈ 517 µM)	75 (≈ 258 µM)	Cc1nn(-c2ccc(-c3nnc(S)o3)cc2)c(=O)n1N

Reference: ChEMBL document CHEMBL3045548, “Synthesis of some novel 1,2,4-triazole and 1,3,4-oxadiazole derivatives of biological interest” (2013)
